Holding throughout (type): in vivo
Data set [1] concerns Beet Armyworm (Spodoptera exigua, LAPHEG). As to the kind of experiment: Bioassay on Beet Armyworm (BAW), 128-well diet tray assay. The note with it: 168 h, 50 μg/cm^2 on artificial diet, second instar larvae, 25° C., five to seven days, average of eight wells, read-out: BAW % Control (or Mortality) rating. The gist of the method: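 Artificial diet surface-treated with 50 μg/cm^2 test molecule in 90:10 acetone-water, dried, then infested with one to five second instar larvae per well. Held covered and vented at 25° C., 14:10 light-dark for five to seven days; percent mortality recorded per well and averaged over eight wells.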

The subject of data set [2] is Cabbage Looper (Trichoplusia ni, TRIPNI). Put plainly: Bioassay on Cabbage Looper (CL), 128-well diet tray assay. The note with it: 168 h, 50 μg/cm^2 on artificial diet, second instar larvae, 25° C., five to seven days, average of eight wells, read-out: CL % Control (or Mortality) rating. An outline of the steps: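 Percent mortality, averaged across eight replicate wells, was scored after five to seven days at 25° C. under a 14:10 light-dark cycle. Each well held one to five second instar larvae on artificial diet treated at 50 μg/cm^2 with compound from 90:10 acetone-water, allowed to dry before infestation.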

The test system of data set [3] is Green Peach Aphid (Myzus persicae, MYZUPE). As to the kind of experiment: Bioassay on Green Peach Aphid (GPA), foliar spray on cabbage seedlings. The note with it: 72 h, 200 ppm foliar spray on cabbage seedlings, three days, Abbott corrected % control, read-out: GPA % Control (or Mortality) rating. How it is done: Certain molecules disclosed in this document were tested against GPA using procedures described in the following example. In the reporting of the results, the “GPA & YFM Rating Table” was used (See Table Section).
Cabbage seedlings grown in 3-inch pots, with 2-3 small (3-5 cm) true leaves, were used as test substrate. The seedlings were infested with 20-50 GPA (wingless adult and nymph stages) one day prior to chemical application. Four pots with individual seedlings were used for each treatment. Test molecules (2 mg) were dissolved in 2 mL of acetone/methanol (1:1) solvent, forming stock solutions of 1000 ppm test molecule.
The stock solutions were diluted 5× with 0.025% Tween 20 in water to obtain the solution at 200 ppm test molecule. A hand-held aspirator-type sprayer was used for spraying a solution to both sides of […] leaves until runoff. Reference plants (solvent check) were sprayed with the diluent only containing 20% by volume of acetone/methanol (1:1) solvent. Treated plants were held in a holding room for three days at approximately 25° C. and ambient relative humidity (RH) prior to grading. Evaluation was conducted by counting the number of live aphids per plant under a microscope. Percent control was measured using Abbott's correction formula (W. S. Abbott, “A Method of Computing the Effectiveness of an Insecticide” J. Econ. Entomol. 18 (1925), pp. 265-267) as follows. Corrected % Control=100*(X−Y)/X where X=No. of live aphids on solvent check plants and Y=No. of live aphids on treated plants. The results are indicated in the table entitled “Table ABC: Biological Results” (See Table Section).

For data set [4], the system named is Yellow Fever Mosquito (Aedes aegypti, AEDSAE). Conditions: about 1 day-old larvae, 96-well plate from 4000 ppm DMSO master, 3 days at room temperature. An outline of the steps: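 Each well was scored for mortality after 3 days at room temperature under a non-evaporative lid. Test molecules came from DMSO masters (4000 ppm stock) diluted with water/acetone 90:10 and dispensed into six replicate plates, which were then infested with roughly 1-day-old larvae in liver-powder water.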

Broadly, the mortality is the percentage killed. As to `O=C(NC1CC(F)(F)C1)c1cc(NC(=O)[C@H]2[C@H](c3ccc(Cl)c(Cl)c3)C2(Cl)Cl)ccc1Cl` (relative stereo) [Molecule F9, trans-2-Chloro-5-(2,2-dichloro-3-(3,4-dichlorophenyl)cyclopropanecarboxamido)-N-(3,3-difluorocyclobutyl)benzamide], the mortality at 50 µg/cm2 in data set [1] and in data set [2] was 50 to 100% each time. Also, in data set [3], the mortality at 200 ppm is 80 to 100%. Besides, in data set [4], the “YFM % Control (or Mortality) rating” value was “A (80-100)”.

With `N#CC1(NC(=O)c2cc(NC(=O)[C@H]3[C@H](c4cccc(C(F)(F)F)c4)C3(Cl)Cl)ccc2Cl)CC1` (relative stereo) [Molecule F18, trans-2-Chloro-N-(1-cyanocyclopropyl)-5-(2,2-dichloro-3-(3-(trifluoromethyl)phenyl)cyclopropanecarboxamido)benzamide], the mortality at 50 µg/cm2 in data set [1] and in data set [2] was 50 to 100% throughout. Besides, the mortality at 200 ppm in data set [3] fell in the range of 80 to 100%. In addition, the “YFM % Control (or Mortality) rating” value in data set [4] was “B (More than 0-Less than 80)”.

Turning to `O=C(NC1CC(F)(F)C1)c1cc(NC(=O)[C@H]2[C@H](c3ccc(OC(F)(F)F)c(Cl)c3)C2(Cl)Cl)ccc1Cl` (relative stereo) [Molecule F21, trans-2-Chloro-5-(2,2-dichloro-3-(3-chloro-4-(trifluoromethoxy)phenyl)cyclopropanecarboxamido)-N-(3,3-difluorocyclobutyl)benzamide], the mortality at 50 µg/cm2 in data set [1] and in data set [2] was 50 to 100% in each case. In data set [3], the mortality at 200 ppm lay within 80 to 100%. In addition, in data set [4], the “YFM % Control (or Mortality) rating” value is recorded as “A (80-100)”.

On to `N#CC1(NC(=O)c2cc(NC(=O)[C@H]3[C@H](c4ccc(Cl)c(Cl)c4)C3(Cl)Cl)ccc2Cl)CC1` (relative stereo) [Molecule F11, trans-2-Chloro-N-(1-cyanocyclopropyl)-5-(2,2-dichloro-3-(3,4-dichlorophenyl)cyclopropanecarboxamido)benzamide], for which the mortality at 50 µg/cm2 in data set [1] and in data set [2] was 50 to 100% each time. In addition, the mortality at 200 ppm in data set [3] lay in the range of 80 to 100%. For the same molecule, in data set [4], the “YFM % Control (or Mortality) rating” value is given as “A (80-100)”.

Take `N#CC1(NC(=O)c2cc(NC(=O)C3C(c4ccc(Cl)c(Cl)c4)C3(Cl)Cl)ccc2Cl)CCC1` (stereo not drawn) [Molecule F14, trans-2-Chloro-N-(l-cyanocyclobutyl)-5-(2,2-dichloro-3-(3,4-dichlorophenyl)cyclopropanecarboxamido)benzamide]: the mortality at 50 µg/cm2 in data set [1] and in data set [2] was 50 to 100% each time. For the same molecule, the mortality at 200 ppm in data set [3] is 0 to 80%. In data set [4], the “YFM % Control (or Mortality) rating” value was “A (80-100)”.

Consider `N#CC1(NC(=O)c2cc(NC(=O)[C@H]3[C@H](c4cc(Cl)cc(Cl)c4)C3(Cl)Cl)ccc2Cl)CC1` (relative stereo) [Molecule F4, trans-2-Chloro-N-(1-cyanocyclopropyl)-5-(2,2-dichloro-3-(3,5-dichlorophenyl)cyclopropanecarboxamido)benzamide], for which the mortality at 50 µg/cm2 in data set [1] and in data set [2] was 50 to 100% each time. In addition, in data set [3], the mortality at 200 ppm is 80 to 100%. The “YFM % Control (or Mortality) rating” value in data set [4] is reported as “A (80-100)”.

With `N#Cc1cc(Cl)cc([C@H]2[C@H](C(=O)Nc3ccc(Cl)c(C(=O)NC4(C#N)CC4)c3)C2(Cl)Cl)c1` (relative stereo) [Molecule F78, trans-2-Chloro-N-(1-cyanocyclopropyl)-5-(2,2-dichloro-3-(3-chloro-5-cyanophenyl)cyclopropane-1-carboxamido)benzamide], the mortality at 50 µg/cm2 in data set [1] and in data set [2] was 50 to 100% throughout. Further, in data set [3], the mortality at 200 ppm is 0 to 80%. Moreover, the “YFM % Control (or Mortality) rating” value in data set [4] is reported as “D (No activity noticed in this bioassay)”.

As for `CN(C(=O)c1cc(NC(=O)[C@H]2[C@H](c3cc(Cl)cc(Cl)c3)C2(Cl)Cl)ccc1Cl)C1CC(F)(F)C1` (relative stereo) [Molecule F32, trans-2-Chloro-5-(2,2-dichloro-3-(3,5-dichlorophenyl)cyclopropanecarboxamido)-N-(3,3-difluorocyclobutyl)-N-methylbenzamide], the mortality at 50 µg/cm2 in data set [1] and in data set [2] was 50 to 100% throughout. The mortality at 200 ppm in data set [3] lay within 80 to 100%. Besides, the “YFM % Control (or Mortality) rating” value in data set [4] is recorded as “A (80-100)”.

For `O=C(NC1CCOCC1)c1cc(NC(=O)[C@H]2[C@H](c3cc(Cl)cc(Cl)c3)C2(Cl)Cl)ccc1Cl` (relative stereo) [Molecule F55, trans-2-chloro-5-(2,2-dichloro-3-(3,5-dichlorophenyl)cyclopropanecarboxamido)-N-(tetrahydro-2H-pyran-4-yl)benzamide], the mortality at 50 µg/cm2 in data set [1] and in data set [2] was 50 to 100% each time. For the same molecule, the mortality at 200 ppm in data set [3] is 80 to 100%.

As to `N#Cc1cc(Cl)cc(C2C(C(=O)Nc3ccc(Cl)c(C(=O)NC4CC(F)(F)C4)c3)C2(Cl)Cl)c1` (stereo not drawn) [Molecule F77, trans-2-Chloro-5-(2,2-dichloro-3-(3-chloro-5-cyanophenyl)cyclopropane-1-carboxamidocarboxamido)-N-(3,3-difluorocyclobutyl)benzamide], the mortality at 50 µg/cm2 in data set [1] and in data set [2] was 50 to 100% in each case. Also, in data set [4], the “YFM % Control (or Mortality) rating” value was “A (80-100)”.

`O=C(NC1(C(=O)NCC(F)(F)F)CC1)c1cc(NC(=O)C2C(c3cc(Cl)cc(Cl)c3)C2(Cl)Cl)ccc1Cl` (stereo not drawn) [PF42, trans-2-Chloro-5-(2,2-dichloro-3-(3,5-dichlorophenyl)cyclopropane-1-carbox-amido)-N-(1-((2,2,2-trifluoroethyl)carbamoyl)cyclopropyl)benzamide]: the mortality at 50 µg/cm2 in data set [1] and in data set [2] was 50 to 100% throughout. Besides, the “YFM % Control (or Mortality) rating” value in data set [4] is “A (80-100)”.

In the case of `N#CC1(NC(=O)c2cc(NC(=O)[C@H]3[C@H](c4ccc(C(F)F)cc4)C3(Cl)Cl)ccc2Cl)CC1` (relative stereo) [Molecule F92, trans-2-Chloro-N-(1-cyanocyclopropyl)-5-(2,2-dichloro-3-(4-(difluoromethyl)-phenyl)cyclopropane-1-carboxamido)benzamide], the mortality at 50 µg/cm2 in data set [1] and in data set [2] was 50 to 100% throughout. Besides, the “YFM % Control (or Mortality) rating” value in data set [4] is recorded as “A (80-100)”.

For the molecule `C=Cc1ccc([C@H]2[C@H](C(=O)Nc3ccc(Cl)c(C(=O)NC4(C#N)CC4)c3)C2(Cl)Cl)cc1Cl` (relative stereo) [Molecule F67, trans-2-chloro-N-(1-cyanocyclopropyl)-5-(2,2-dichloro-3-(3-chloro-4-vinylphenyl)cyclopropane-1-carboxamido)benzamide], the mortality at 50 µg/cm2 in data set [1] and in data set [2] was 50 to 100% throughout. Also, the “YFM % Control (or Mortality) rating” value in data set [4] was “A (80-100)”.

For the molecule `O=C(NC1CCSC1=O)c1cc(NC(=O)C2C(c3cc(Cl)cc(Cl)c3)C2(Cl)Cl)ccc1Cl` (stereo not drawn) [PF36, trans-2-Chloro-5-(2,2-dichloro-3-(3,5-dichlorophenyl)cyclopropane-1-carbox-amido)-N-(2-oxotetrahydrothiophen-3-yl)benzamide], the mortality at 50 µg/cm2 in data set [1] and in data set [2] was 50 to 100% in each case. In data set [4], the “YFM % Control (or Mortality) rating” value is “A (80-100)”.

`O=C(NC1CCOC1=O)c1cc(NC(=O)C2C(c3cc(Cl)cc(Cl)c3)C2(Cl)Cl)ccc1Cl` (stereo not drawn) [PF37, trans-2-Chloro-5-(2,2-dichloro-3-(3,5-dichlorophenyl)cyclopropane-1-carbox-amido)-N-(2-oxotetrahydrofuran-3-yl)benzamide]: the mortality at 50 µg/cm2 in data set [1] and in data set [2] was 50 to 100% in each case. The “YFM % Control (or Mortality) rating” value in data set [4] was “A (80-100)”.

Regarding `O=C(NC1CC(F)(F)C1)c1cc(NC(=O)[C@H]2[C@H](c3cc(F)cc(Cl)c3)C2(Cl)Cl)ccc1Cl` (relative stereo) [PF5, trans-2-Chloro-5-(2,2-dichloro-3-(3-chloro-5-fluorophenyl)cyclopropane-1-carboxamido)-N-(3,3-difluorocyclobutyl)benzamide], the mortality at 50 µg/cm2 in data set [1] and in data set [2] was 50 to 100% throughout. For the same molecule, the “YFM % Control (or Mortality) rating” value in data set [4] is recorded as “B (More than 0-Less than 80)”.

These data come from patent US9795139B2, “Molecules having pesticidal utility, and intermediates, compositions, and processes, related thereto” (priority 2015, dated 2017).
